Test results from PubChem BioAssay (NCI).
Values joined by “and” are separate entries in the source; they are usually repeats but may differ in a detail not shown here. Equal values may be shown once.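 Each compound was tested at five concentrations against cells in 96-well plates for 48 hours. GI50 marks 50% less growth. The concentration for full growth arrest is given as TGI.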

What was measured:
Test in all cases: NCI tumour cell line growth inhibition, 48 h
786-0 renal = tested on: 786-0 renal
BT-549 breast = tested on: BT-549 breast
CAKI-1 renal = tested on: CAKI-1 renal
DU-145 prostate = tested on: DU-145 prostate
HCC-2998 colon = tested on: HCC-2998 colon
HT29 colon = tested on: HT29 colon
K-562 leukemia = tested on: K-562 leukemia
OVCAR-8 ovarian = tested on: OVCAR-8 ovarian
RXF 393 renal = tested on: RXF 393 renal
SN12C renal = tested on: SN12C renal

| SMILES | GI50 (786-0 renal) [µM] | TGI (786-0 renal) [µM] | GI50 (BT-549 breast) [µM] | TGI (BT-549 breast) [µM] | GI50 (CAKI-1 renal) [µM] | TGI (CAKI-1 renal) | GI50 (DU-145 prostate) [µM] | TGI (DU-145 prostate) [µM] | GI50 (HCC-2998 colon) [µM] | TGI (HCC-2998 colon) [µM] | GI50 (HT29 colon) [µM] | TGI (HT29 colon) | GI50 (K-562 leukemia) [µM] | TGI (K-562 leukemia) [µM] | GI50 (OVCAR-8 ovarian) [µM] | TGI (OVCAR-8 ovarian) | GI50 (RXF 393 renal) [µM] | TGI (RXF 393 renal) | GI50 (SN12C renal) [µM] | TGI (SN12C renal) |
| --- | --- | --- | --- | --- | --- | --- | --- | --- | --- | --- | --- | --- | --- | --- | --- | --- | --- | --- | --- | --- |
| N#CSCC1CC(O)(c2ccccc2)CC(c2ccc(F)cc2)O1 (stereo not given) | 1.61 | 3.27 | 1.94 | 4.31 | 2.54 | 8.5 µM | 1.56 | 3.45 | 4.02 | 17.6 | 1.97 | 4.19 µM | 2.14 | 7.31 | 2.02 | 4.37 µM | 1.72 | 3.47 µM | 1.8 | 3.47 µM |
| O=C(NCc1ccc(Cn2c(=O)sn(-c3ccccc3)c2=O)cc1)OCc1ccc2c(Br)cc(Br)c(O)c2n1 | 0.495 | 1.08 | 0.614 | 1.99 | 0.404 | 1.67 µM | 0.992 | 2.19 | 1.8 | 3.41 | 0.539 | 1.89 µM | 0.322 | > 100 | 0.762 | 2.44 µM | 0.546 | 1.83 µM | 0.703 | 2.06 µM |
| COc1ccc(Nc2c3ccccc3nc3ccccc23)cc1 | 3.85 | 16.7 | 5.99 | 23.6 | 1.21 | 10.4 µM | 2.43 | 12.3 | 1.92 | 11.2 | 0.454 | 2.71 µM | 0.583 | 7.19 | 1.89 | 16.7 µM | 2.04 | 12.1 µM | 2.18 | 13 µM |
| Nc1nc(-c2ccccc2)nc(N)c1N=O | 13.2 | 27.1 | 6.44 | 19.1 | 4.5 | 36.3 µM | 9.5 | 21.6 | 14.1 | 27.6 | 2.88 | 10.3 µM | 5.09 | 72.3 | 7.55 | 53.7 µM | 2.07 | 7.07 µM | 4.51 | 18.1 µM |
| O=C(NP(=O)(N1CC1)N1CC1)c1cc(I)ccc1I |  | > 100 |  | > 100 |  | > 100 µM |  | > 100 |  | > 100 |  | > 100 µM |  | > 100 |  | > 94.4 µM |  | > 87.8 µM |  | > 100 µM |
| c1cc(CNCCN2CCNCC2)ccn1 |  | > 100 |  | > 100 |  | > 100 µM |  | > 100 |  |  |  | > 100 µM |  | > 100 |  | > 100 µM |  | > 100 µM |  | > 100 µM |
| O=C(Nc1ccccc1)NS(=O)(=O)c1ccc(-n2nc3c(c2-c2ccc(Cl)cc2)Cc2ccccc2-3)cc1 | 27.5 | > 100 | 21 | 65.9 | 4.37 | 29.2 µM | 19.4 | 47 |  |  | 29.8 | > 100 µM | 4.66 | 21.9 | 24.7 | 86.8 µM | 22.2 | 85.7 µM | 23.2 | 66.6 µM |
| CCCCCCCCCCCC1CCCC(C)N1 (stereo not given) | 13.7 | 42.9 | 7.39 | 22.6 | 4.84 | 19.5 µM and 116 µM | 12.5 | 26.1 | 2.05 |  | 2.59 | 8.78 µM and 65.7 µM | 1.96 |  | 13.8 | 40.1 µM and 167 µM | 15.2 | 35.6 µM and 108 µM | 6.3 | 23.9 µM and 131 µM |
| C=C1CC/C=C(\C)C(=O)C[C@@H]2[C@@H]1CC2(C)C |  | 6.69 |  | 11.6 |  | 3.01 µM |  | 16.6 |  | 12.7 |  | > 32.7 µM |  | > 100 |  | 29.7 µM |  | 4.33 µM |  | 13 µM |
| COc1cc2c(cc1Nc1nc(Nc3ccsc3C(N)=O)c3cc[nH]c3n1)N(C(=O)CN(C)C)CCC2(C)C | 3.06 | 6.82 | 2.01 | 5.6 | 1.37 | 6.69 µM | 2.88 | 5.96 | 0.485 | 4.47 | < 0.0025 | 2.53 µM | 1.75 | 6.47 | 1.64 | 5.69 µM | 1.67 | 5.09 µM | 3.13 | 7.18 µM |
| COc1cc(OC)c(/C=C/c2cnc3ccccc3n2)c(OC)c1 |  | > 10 |  | > 10 |  | > 10 µM |  | > 10 |  | > 10 |  | > 10 µM |  | > 10 |  | > 10 µM |  | > 10 µM |  | > 10 µM |
| CCN(C(=O)c1cc(F)ccc1Oc1cncnc1N1CC2(CCN(CC3CCC(NS(=O)(=O)CC)CC3)CC2)C1)C(C)C (stereo not given) | > 100 | > 100 | > 100 | > 100 | > 100 | > 100 µM | > 100 | > 100 | > 100 | > 100 | > 100 | > 100 µM | > 100 | > 100 | > 100 | > 100 µM | > 100 | > 100 µM | > 100 | > 100 µM |
| NC(=O)c1cc(-c2ccc(F)cc2)cc(-c2ccncc2)c1N | > 25 | > 25 | > 25 | > 25 | 13.7 | > 25 µM | > 25 | > 25 | > 25 | > 25 | > 25 | > 25 µM | > 25 | > 25 | > 25 | > 25 µM | > 18.6 | > 25 µM | > 25 | > 25 µM |
| CN(CC(=O)N(Cc1ccc(C2CCCCC2)cc1)c1ccc(C(=O)O)c(O)c1)S(=O)(=O)c1c(F)c(F)c(F)c(F)c1F | 8.88 | 23.8 | 10.9 | 23.6 | 5.09 | 10.4 µM | 15.6 | 29 | 2.37 | 5.72 | 2.05 | 4.2 µM | 2.05 | 4.57 | 7.11 | 20.5 µM | 1.89 | 3.76 µM | 6.74 | 24.4 µM |
